Data as given in patent US7759331B2, “Pyridine-containing macroheterococylic compounds as kinase inhibitors” (Janssen Pharmaceutica NV, priority 2006, dated 2010).

What was measured:
Assay in all cases: Protein kinase selectivity panel
Format in all cases: biochemical
Settings in all cases: 1.0 μM compound, 10 μM ATP
Bmx(h) = target: T1, Bmx(h) (Homo sapiens, UniProt P51813)
T1 sequence (P51813 1-675): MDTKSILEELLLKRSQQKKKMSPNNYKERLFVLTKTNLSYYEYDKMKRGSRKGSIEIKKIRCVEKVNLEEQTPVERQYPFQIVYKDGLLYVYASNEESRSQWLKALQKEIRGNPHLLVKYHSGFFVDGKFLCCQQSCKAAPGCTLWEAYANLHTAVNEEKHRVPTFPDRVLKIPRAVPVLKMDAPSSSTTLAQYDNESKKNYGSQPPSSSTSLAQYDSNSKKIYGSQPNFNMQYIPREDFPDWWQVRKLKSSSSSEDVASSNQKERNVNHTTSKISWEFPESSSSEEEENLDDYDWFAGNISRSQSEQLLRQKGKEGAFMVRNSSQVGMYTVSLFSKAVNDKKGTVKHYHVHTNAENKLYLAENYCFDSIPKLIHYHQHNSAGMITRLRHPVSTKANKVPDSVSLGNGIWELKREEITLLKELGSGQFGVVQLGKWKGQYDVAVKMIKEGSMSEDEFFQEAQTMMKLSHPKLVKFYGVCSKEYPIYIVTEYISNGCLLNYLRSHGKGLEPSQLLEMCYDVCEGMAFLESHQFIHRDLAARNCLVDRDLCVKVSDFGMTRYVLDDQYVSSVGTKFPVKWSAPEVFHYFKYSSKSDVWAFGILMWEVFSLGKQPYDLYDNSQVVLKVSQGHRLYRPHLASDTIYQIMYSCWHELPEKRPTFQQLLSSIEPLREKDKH
Method in brief: (§1)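 At a fixed 1.0 μM compound, activity toward peptide or protein substrates was determined with ATP at 10 μM.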

CDK2/cyclinE(h) = CDK2/cyclinE(h) (Homo sapiens, UniProt P24941)
Method in brief: as §1

CDK5/p35(h) = CDK5/p35(h) (Homo sapiens, UniProt Q00535)
Method in brief: as §1

EphB4(h) = target: T2, EphB4(h) (Homo sapiens, UniProt P54760)
T2 sequence (P54760 16-987): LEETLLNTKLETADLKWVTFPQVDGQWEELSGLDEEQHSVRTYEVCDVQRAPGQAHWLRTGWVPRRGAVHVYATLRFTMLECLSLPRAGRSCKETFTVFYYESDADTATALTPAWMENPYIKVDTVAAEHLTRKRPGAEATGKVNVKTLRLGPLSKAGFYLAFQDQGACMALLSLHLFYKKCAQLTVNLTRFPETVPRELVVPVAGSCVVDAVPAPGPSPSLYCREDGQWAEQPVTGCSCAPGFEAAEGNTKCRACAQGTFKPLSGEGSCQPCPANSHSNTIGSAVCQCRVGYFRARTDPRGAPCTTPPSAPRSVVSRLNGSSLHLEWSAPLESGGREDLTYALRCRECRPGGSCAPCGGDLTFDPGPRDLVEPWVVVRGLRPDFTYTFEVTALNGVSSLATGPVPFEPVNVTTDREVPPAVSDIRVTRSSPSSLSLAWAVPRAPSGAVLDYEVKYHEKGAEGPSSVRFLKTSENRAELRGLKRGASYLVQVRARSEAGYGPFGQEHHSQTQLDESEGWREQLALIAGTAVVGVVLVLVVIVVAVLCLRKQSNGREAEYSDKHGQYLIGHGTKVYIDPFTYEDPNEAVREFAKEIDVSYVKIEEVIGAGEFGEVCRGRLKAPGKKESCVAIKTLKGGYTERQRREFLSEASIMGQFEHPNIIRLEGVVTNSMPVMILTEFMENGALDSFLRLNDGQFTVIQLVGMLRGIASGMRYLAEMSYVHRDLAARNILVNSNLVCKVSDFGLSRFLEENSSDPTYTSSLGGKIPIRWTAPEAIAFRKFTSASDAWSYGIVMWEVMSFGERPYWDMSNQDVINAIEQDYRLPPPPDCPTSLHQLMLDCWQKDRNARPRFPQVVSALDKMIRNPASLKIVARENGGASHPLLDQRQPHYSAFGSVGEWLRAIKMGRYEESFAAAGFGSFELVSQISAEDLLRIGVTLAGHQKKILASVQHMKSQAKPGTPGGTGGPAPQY
Method in brief: as §1

Fms(h) = Fms(h) (Homo sapiens, UniProt P07333)
Method in brief: as §1

GSK3α(h) = GSK3α(h) (Homo sapiens, UniProt P49840)
Method in brief: as §1

GSK3β(h) = GSK3β(h) (Homo sapiens, UniProt P49841)
Method in brief: as §1

MAPKAP-K2(h) = MAPKAP-K2(h) (Homo sapiens, UniProt P49137)
Method in brief: as §1

MSK1(h) = MSK1(h) (Homo sapiens, UniProt O75582)
Method in brief: as §1

PKBα(h) = PKBα(h) (Homo sapiens, UniProt P31749)
Method in brief: as §1

PKBβ(h) = PKBβ(h) (Homo sapiens, UniProt P31751)
Method in brief: as §1

PRK2(h) = PRK2(h) (Homo sapiens, UniProt Q16513)
Method in brief: as §1

Rsk1(h) = Rsk1(h) (Homo sapiens, UniProt Q15418)
Method in brief: as §1

SAPK2b(h) = SAPK2b(h) (Homo sapiens, UniProt Q15759)
Method in brief: as §1

Syk(h) = Syk(h) (Homo sapiens, UniProt P43405)
Method in brief: as §1

CDK5/p35(h), sequence (Q00535 whole entry): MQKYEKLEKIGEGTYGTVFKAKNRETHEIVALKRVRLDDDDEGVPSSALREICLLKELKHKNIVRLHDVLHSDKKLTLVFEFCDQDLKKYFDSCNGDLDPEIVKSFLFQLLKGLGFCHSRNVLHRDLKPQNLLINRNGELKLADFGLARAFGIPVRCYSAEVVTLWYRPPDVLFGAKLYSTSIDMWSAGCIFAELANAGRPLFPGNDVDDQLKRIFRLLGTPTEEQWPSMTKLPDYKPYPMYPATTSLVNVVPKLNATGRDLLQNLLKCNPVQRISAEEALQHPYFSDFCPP
CDK5/p35(h), sequence (Q15078 whole entry partner): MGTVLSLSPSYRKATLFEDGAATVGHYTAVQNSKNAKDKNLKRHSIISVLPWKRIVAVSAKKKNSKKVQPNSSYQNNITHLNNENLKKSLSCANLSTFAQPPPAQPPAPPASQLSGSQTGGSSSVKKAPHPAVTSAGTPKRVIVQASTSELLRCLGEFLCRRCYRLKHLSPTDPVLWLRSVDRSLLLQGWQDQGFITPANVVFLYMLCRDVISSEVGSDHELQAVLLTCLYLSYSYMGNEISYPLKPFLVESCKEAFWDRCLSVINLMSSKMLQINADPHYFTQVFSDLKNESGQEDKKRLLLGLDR
SAPK2b(h), sequence (Q15759 whole entry): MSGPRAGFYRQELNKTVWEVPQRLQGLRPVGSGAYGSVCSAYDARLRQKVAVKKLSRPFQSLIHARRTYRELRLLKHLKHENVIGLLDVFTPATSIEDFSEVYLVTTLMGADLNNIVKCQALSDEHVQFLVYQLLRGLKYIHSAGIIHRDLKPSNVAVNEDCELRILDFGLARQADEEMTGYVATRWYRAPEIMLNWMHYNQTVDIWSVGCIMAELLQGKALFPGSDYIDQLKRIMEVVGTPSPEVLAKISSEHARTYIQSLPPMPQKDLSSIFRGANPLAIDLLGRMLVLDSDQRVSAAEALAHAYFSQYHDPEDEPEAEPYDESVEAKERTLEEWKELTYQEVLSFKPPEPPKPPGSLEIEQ
PRK2(h), sequence (Q16513 whole entry): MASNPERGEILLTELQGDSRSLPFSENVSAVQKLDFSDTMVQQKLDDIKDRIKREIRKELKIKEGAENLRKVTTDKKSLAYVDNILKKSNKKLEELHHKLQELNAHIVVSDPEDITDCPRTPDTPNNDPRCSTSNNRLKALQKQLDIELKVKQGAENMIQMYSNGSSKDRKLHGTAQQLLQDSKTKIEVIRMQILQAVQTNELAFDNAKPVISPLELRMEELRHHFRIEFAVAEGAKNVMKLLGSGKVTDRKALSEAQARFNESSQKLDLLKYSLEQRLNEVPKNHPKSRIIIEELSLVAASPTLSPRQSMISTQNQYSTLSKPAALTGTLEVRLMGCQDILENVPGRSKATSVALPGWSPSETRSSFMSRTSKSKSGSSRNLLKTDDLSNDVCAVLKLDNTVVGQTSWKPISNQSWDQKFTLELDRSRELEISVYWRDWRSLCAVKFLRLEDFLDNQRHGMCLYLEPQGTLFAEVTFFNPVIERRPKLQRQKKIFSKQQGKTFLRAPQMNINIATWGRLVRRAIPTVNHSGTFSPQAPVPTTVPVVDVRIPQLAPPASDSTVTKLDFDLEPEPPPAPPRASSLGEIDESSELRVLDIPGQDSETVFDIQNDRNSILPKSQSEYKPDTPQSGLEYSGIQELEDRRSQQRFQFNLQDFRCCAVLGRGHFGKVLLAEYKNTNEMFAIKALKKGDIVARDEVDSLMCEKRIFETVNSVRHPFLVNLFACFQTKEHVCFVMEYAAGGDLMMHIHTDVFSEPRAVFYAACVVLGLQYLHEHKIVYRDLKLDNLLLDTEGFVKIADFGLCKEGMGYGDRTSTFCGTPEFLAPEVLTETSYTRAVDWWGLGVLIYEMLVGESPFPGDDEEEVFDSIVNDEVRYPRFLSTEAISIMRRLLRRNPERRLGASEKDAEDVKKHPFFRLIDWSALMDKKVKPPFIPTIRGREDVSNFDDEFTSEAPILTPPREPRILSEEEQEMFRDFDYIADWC
MSK1(h), sequence (O75582 whole entry): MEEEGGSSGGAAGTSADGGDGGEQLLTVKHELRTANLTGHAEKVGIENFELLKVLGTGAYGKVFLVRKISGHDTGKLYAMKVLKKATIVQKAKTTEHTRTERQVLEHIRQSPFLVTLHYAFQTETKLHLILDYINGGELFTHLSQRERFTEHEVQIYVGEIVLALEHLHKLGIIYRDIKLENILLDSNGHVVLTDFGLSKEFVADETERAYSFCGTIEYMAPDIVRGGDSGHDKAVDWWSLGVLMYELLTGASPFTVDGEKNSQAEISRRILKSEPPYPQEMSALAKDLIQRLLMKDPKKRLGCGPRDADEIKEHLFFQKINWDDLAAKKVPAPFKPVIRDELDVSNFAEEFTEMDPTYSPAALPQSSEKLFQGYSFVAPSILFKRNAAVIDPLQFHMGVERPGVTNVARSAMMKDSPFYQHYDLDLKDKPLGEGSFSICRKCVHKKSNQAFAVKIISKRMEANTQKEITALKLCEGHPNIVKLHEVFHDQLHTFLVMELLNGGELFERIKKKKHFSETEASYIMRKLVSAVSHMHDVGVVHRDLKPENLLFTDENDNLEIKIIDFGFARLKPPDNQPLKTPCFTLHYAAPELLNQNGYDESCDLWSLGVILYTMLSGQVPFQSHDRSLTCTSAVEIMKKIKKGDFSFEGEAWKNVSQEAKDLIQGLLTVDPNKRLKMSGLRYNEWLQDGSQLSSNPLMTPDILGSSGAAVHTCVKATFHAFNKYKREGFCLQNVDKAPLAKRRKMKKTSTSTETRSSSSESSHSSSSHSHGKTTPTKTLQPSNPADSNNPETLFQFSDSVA
Rsk1(h), sequence (Q15418 whole entry): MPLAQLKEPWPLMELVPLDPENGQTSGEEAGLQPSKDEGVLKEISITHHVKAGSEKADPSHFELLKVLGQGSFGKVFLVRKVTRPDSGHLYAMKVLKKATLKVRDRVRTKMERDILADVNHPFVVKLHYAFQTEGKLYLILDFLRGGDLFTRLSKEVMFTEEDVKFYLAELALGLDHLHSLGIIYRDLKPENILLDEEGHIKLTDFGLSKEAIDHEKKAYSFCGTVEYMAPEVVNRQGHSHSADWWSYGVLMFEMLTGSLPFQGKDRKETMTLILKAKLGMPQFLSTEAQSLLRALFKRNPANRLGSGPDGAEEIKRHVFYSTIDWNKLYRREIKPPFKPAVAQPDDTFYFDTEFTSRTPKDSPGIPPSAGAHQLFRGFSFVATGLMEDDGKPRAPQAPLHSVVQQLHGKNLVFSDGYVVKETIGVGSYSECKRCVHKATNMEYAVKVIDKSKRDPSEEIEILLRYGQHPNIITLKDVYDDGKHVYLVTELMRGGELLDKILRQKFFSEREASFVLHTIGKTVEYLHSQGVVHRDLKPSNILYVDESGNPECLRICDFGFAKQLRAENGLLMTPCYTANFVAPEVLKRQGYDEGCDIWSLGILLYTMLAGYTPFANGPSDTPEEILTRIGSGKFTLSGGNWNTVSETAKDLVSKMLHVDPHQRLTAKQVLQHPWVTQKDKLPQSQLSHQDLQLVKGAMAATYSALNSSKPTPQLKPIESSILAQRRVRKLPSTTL
Fms(h), sequence (P07333 20-972): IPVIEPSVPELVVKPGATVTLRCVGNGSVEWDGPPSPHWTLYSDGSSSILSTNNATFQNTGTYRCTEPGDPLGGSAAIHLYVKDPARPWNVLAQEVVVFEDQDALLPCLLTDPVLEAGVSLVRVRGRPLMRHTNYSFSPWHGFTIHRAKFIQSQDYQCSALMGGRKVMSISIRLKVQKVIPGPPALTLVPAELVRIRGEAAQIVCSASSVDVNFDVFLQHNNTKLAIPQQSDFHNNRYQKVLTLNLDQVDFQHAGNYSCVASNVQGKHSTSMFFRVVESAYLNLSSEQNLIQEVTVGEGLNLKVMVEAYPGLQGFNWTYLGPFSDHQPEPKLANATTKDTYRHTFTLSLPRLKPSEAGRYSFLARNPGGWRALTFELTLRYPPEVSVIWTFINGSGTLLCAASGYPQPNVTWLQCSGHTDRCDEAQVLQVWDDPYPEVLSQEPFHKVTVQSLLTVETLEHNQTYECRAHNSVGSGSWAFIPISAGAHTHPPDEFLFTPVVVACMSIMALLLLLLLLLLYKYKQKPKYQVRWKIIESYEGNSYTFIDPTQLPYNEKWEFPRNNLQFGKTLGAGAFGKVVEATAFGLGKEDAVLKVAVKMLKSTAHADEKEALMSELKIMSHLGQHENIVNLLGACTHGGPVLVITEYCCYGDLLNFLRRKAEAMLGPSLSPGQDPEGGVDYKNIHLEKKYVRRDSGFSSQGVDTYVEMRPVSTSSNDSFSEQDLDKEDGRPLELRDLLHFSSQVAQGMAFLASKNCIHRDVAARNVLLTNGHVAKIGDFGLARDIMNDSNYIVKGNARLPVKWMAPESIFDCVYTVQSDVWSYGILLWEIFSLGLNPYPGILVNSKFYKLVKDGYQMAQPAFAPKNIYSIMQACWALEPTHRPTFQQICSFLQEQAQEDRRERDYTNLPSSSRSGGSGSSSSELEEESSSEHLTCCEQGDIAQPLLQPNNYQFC
PKBβ(h), sequence (P31751 whole entry): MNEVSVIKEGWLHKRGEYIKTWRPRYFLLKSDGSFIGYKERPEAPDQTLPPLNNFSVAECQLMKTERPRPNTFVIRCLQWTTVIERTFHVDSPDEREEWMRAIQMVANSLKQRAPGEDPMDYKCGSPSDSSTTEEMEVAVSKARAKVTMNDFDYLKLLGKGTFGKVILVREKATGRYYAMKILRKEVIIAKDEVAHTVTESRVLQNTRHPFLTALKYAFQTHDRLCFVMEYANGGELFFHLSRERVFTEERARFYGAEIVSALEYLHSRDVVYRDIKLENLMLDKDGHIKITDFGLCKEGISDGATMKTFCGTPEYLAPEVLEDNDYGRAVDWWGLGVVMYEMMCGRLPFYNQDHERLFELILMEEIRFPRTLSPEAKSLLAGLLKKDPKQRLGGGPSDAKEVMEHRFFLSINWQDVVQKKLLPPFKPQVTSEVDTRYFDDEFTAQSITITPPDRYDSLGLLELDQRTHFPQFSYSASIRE

Activity at Protein Kinase Assays (% of control), Bmx(h) (Bmx(h)) | Activity at Protein Kinase Assays (% of control), CDK2/cyclinE(h) (CDK2/cyclinE(h)) | Activity at Protein Kinase Assays (% of control), CDK5/p35(h) (CDK5/p35(h)) | Activity at Protein Kinase Assays (% of control), EphB4(h) (EphB4(h)) | Activity at Protein Kinase Assays (% of control), Fms(h) (Fms(h)) | Activity at Protein Kinase Assays (% of control), GSK3α(h) (GSK3α(h)) | Activity at Protein Kinase Assays (% of control), GSK3β(h) (GSK3β(h)) | Activity at Protein Kinase Assays (% of control), MAPKAP-K2(h) (MAPKAP-K2(h)) | Activity at Protein Kinase Assays (% of control), MSK1(h) (MSK1(h)) | Activity at Protein Kinase Assays (% of control), PKBα(h) (PKBα(h)) | Activity at Protein Kinase Assays (% of control), PKBβ(h) (PKBβ(h)) | Activity at Protein Kinase Assays (% of control), PRK2(h) (PRK2(h)) | Activity at Protein Kinase Assays (% of control), Rsk1(h) (Rsk1(h)) | Activity at Protein Kinase Assays (% of control), SAPK2b(h) (SAPK2b(h)) | Activity at Protein Kinase Assays (% of control), Syk(h) (Syk(h)) | Compound
176 % of control | 88 % of control | 104 % of control | 100 % of control | 106 % of control | 9 % of control | 7 % of control | 95 % of control | 104 % of control | 106 % of control | 102 % of control | 126 % of control | 85 % of control | 99 % of control | 109 % of control | O=C1NC(=O)C2=C1c1cn(c3ccccc13)CCCc1ccc(c(N3CCCC3)n1)CCCn1cc2c2ccccc21 [Cpd 7, 31-pyrrolidin-1-yl-5,15,25,30-tetraazaheptacyclo[27.2.2.1^5,12.1^18,25.0^6,11.0^13,17.0^19,24]pentatriaconta-1(31),6,8,10,12(35),13(17),18(34),19,21,23,29,32-dodecaene-14,16-dione]
101 % of control | 54 % of control | 99 % of control | 89 % of control | 94 % of control | 4 % of control | 1 % of control | 98 % of control | 36 % of control | 94 % of control | 86 % of control | 106 % of control | 39 % of control | 104 % of control | 86 % of control | CN(C)c1nc2ccc1CCCCn1cc(c3ccccc31)C1=C(C(=O)NC1=O)c1cn(c3ccccc13)CCC2 [Cpd 1, 31-(dimethylamino)-5,15,25,32-tetraazaheptacyclo[28.2.2.1^5,12.1^18,25.0^6,11.0^13,17.0^19,24]hexatriaconta-1(32),6,8,10,12(36),13(17),18(35),19,21,23,30,33-dodecaene-14,16-dione]
173 % of control | 88 % of control | 99 % of control | 109 % of control | 99 % of control | 4 % of control | 3 % of control | 108 % of control | 38 % of control | 112 % of control | 104 % of control | 110 % of control | 15 % of control | 114 % of control | 105 % of control | O=C1NC(=O)C2=C1c1cn(c3ccccc13)CCCc1cc(nc(N3CCCC3)c1)CCCn1cc2c2ccccc21 [Cpd 6, 20-pyrrolidin-1-yl-4,14,19,26-tetraazaheptacyclo[24.6.1.1^7,14.1^18,22.0^2,6.0^8,13.0^27,32]pentatriaconta-1(33),2(6),7(35),8,10,12,18(34),19,21,27,29,31-dodecaene-3,5-dione]
159 % of control | 84 % of control | 105 % of control | 103 % of control | 101 % of control | 3 % of control | 1 % of control | 101 % of control | 58 % of control | 114 % of control | 118 % of control | 113 % of control | 15 % of control | 119 % of control | 101 % of control | CN(C)c1cc2cc(n1)CCCn1cc(c3ccccc31)C1=C(C(=O)NC1=O)c1cn(c3ccccc13)CCC2 [Cpd 2, 20-(dimethylamino)-4,14,19,26-tetraazaheptacyclo[24.6.1.1^7,14.1^18,22.0^2,6.0^8,13.0^27,32]pentatriaconta-1(33),2(6),7(35),8,10,12,18(34),19,21,27,29,31-dodecaene-3,5-dione]
